Data on three molecules can be found in patent US20040047804A1, “Enhanced radiation therapy” (The General Hospital Corporation, a Massachusetts …, priority 1998, published 2004).

Data set [1] concerns VX2 tumors. As for the experimental part:
About […] of either a small molecule radiodense material (iohexol) or a large molecule radiodense material (WIN 8883) was injected directly into separate VX2 tumors growing in the thigh of a rabbit. To measure the diffusion time of the two materials in the tumor interstitium, the rabbit was euthanized and the corpus imaged using CT over the next 24 hours to measure the spatial and temporal distribution of each material.

The subject of data set [2] is human adenocarcinomas (LS 174T). Set-up: species or system mice. The following applies: mouse, in vivo. As for the experimental part: Immunologically tolerant mice were implanted with several different human neoplasms. When the tumors reached a size of 1-2 cm, radiodense compositions were injected intratumorally via a percutaneous route using a 27 gauge needle. The mice and their tumors where then serially imaged with computed tomography to determine the local pharmacokinetics of the injectates by measuring the x-ray attenuation (in HU) of regions of interest.
FIG. 3 is a plot of the temporal change of x-ray attenuation in a mouse bearing a human adenocarcinomas (LS 174T). The radiodense material was a water soluble, small molecule radiodense material (Omnipaque™ with a concentration of 350 mg I/ml as iohexol). A peak contrast of nearly 3000 HU was attained in the center of the tumor, with smaller degrees of contrast enhancement surrounding the injected area. This small molecule was rapidly cleared with values of only 2000 HU at the peak location 60 minutes later.

The test system of data set [3] is VX2 tumors. The experiment in a line: In vivo radiation enhancement, systemic radiodense material plus internal radiation probe. Also noted: species or system rabbit. The following applies: systemic bolus 3 ml/kg. As for the experimental part: Three rabbits with VX2 tumors growing in the thigh were used to evaluate the radiation therapy effect of the new radiodense compositions and radiation administered internally. In the first rabbit, iohexol was injected systemically as a bolus in a volume of 3 ml/kg, resulting in a peak enhancement of the leaky edge of the tumor by over 50 HU. Radiation of 30 Gy was administered over 45 minutes using a delivery energy of 40 Kev from the probe tip, which was centered in the tumor. The next day, the rabbit was euthanized following the administration of Evans Blue to demarcate the leaky vasculature of the treated tumor as well as an untreated, control tumor in the opposite thigh. […] All of the viable cells were located in the edge of the treated tumor and this edge of viable cells was much smaller than the rim of viable cells in the untreated tumor. Two additional rabbits were treated with a nearly identical protocol, except that the same radiodense material was given as an intravenous bolus plus a sustaining infusion to keep the leaky portions of the tumor enhanced for the entire duration of the radiation treatment. In these two experiments, no evidence of viable tumor was seen on serial computed tomography studies over the next several days. […]

In data set [4] the test system is V79 Chinese Hamster Ovary cancer cells. Briefly: In vitro radiation enhancement, survival of irradiated tumor cells. It is filed as cell-based. To be noted: radiation dosage of 9.0 Gy. The text has this: The effect of the new radiodense compositions on cancer cells was also studied in vitro. Individual V79 Chinese Hamster Ovary cancer cells were suspended in nutrient medium in test tubes and mixed with a sufficient amount of one of several new radiodense compositions to increase the radiodensity of the cell suspension. […] At a radiation energy level of 12 Gy, about 8×10^-1 cells survived in the nutrient medium alone, while only 1×10^-3 to 1×10^-4 survived in the presence of the radiodense materials.

Structures are written as SMILES. Where two headings read alike, the source gives them in different places.

For the molecule `CC(=O)N(CC(O)CO)c1c(I)c(C(=O)NCC(O)CO)c(I)c(C(=O)NCC(O)CO)c1I` (stereo not drawn) [iohexol], the “Volume (total number of intratumoral voxels containing at least 200 HU)” value in the data set with VX2 tumors [1] (1.5 Hrs) was determined as 23912 voxels; in the data set with VX2 tumors [1] (4.5 Hrs) it was 22104 voxels; in the data set with VX2 tumors [1] (21.0 Hrs) it was 44720 voxels; in the data set with VX2 tumors [1] (Initial) it was 12722 voxels. For the same molecule, the “x-ray attenuation at the peak location 60 minutes later” value in data set [2] stood at 2000 HU. In addition, the “peak enhancement of the leaky edge of the tumor” value with VX2 tumors [3] is on record as “over 50 HU”. The “necrosis of viable tumor cells in the treated leg, compared with the control” value with VX2 tumors [3] (30 Gy over 45 minutes at 40 Kev from probe centered in tumor, histology next day) was “about 95%”.
On to `CC(=O)N(CC(O)CN(C(C)=O)c1c(I)c(C(=O)NCC(O)CO)c(I)c(C(=O)NCC(O)CO)c1I)c1c(I)c(C(=O)NCC(O)CO)c(I)c(C(=O)NCC(O)CO)c1I` (stereo not drawn) [iodix, iodixanol], for which the “relative effectiveness among the radiodense materials” value in data set [4] is given as “more effective”.
In the case of `CCOC(=O)c1c(I)c(NC(C)=O)c(I)c(NC(C)=O)c1I` [Win 8883, ethyl-bis(3,5-acetylamino)-2,4,6-triiodobenzoate], the “Volume (total number of intratumoral voxels containing at least 200 HU)” value is 10898 voxels in the data set with VX2 tumors [1] (1.5 Hrs), 11826 voxels in the data set with VX2 tumors [1] (4.5 Hrs), 11682 voxels in the data set with VX2 tumors [1] (21.0 Hrs) and 10420 voxels in the data set on VX2 tumors [1] (Initial).
